In patent US20210253575A1, “PYRROLIDINE AMINE COMPOUNDS FOR THE TREATMENT OF AUTOIMMUNE DISEASE” (Hoffmann-La Roche Inc., priority 2018, published 2021) one finds IC50 data, which are given here for 22 molecules.

Molecules are shown by their SMILES.

The target of the assay is T1, human TLR9 (Homo sapiens, UniProt Q9NR96).
T1 sequence (Q9NR96 26-1032): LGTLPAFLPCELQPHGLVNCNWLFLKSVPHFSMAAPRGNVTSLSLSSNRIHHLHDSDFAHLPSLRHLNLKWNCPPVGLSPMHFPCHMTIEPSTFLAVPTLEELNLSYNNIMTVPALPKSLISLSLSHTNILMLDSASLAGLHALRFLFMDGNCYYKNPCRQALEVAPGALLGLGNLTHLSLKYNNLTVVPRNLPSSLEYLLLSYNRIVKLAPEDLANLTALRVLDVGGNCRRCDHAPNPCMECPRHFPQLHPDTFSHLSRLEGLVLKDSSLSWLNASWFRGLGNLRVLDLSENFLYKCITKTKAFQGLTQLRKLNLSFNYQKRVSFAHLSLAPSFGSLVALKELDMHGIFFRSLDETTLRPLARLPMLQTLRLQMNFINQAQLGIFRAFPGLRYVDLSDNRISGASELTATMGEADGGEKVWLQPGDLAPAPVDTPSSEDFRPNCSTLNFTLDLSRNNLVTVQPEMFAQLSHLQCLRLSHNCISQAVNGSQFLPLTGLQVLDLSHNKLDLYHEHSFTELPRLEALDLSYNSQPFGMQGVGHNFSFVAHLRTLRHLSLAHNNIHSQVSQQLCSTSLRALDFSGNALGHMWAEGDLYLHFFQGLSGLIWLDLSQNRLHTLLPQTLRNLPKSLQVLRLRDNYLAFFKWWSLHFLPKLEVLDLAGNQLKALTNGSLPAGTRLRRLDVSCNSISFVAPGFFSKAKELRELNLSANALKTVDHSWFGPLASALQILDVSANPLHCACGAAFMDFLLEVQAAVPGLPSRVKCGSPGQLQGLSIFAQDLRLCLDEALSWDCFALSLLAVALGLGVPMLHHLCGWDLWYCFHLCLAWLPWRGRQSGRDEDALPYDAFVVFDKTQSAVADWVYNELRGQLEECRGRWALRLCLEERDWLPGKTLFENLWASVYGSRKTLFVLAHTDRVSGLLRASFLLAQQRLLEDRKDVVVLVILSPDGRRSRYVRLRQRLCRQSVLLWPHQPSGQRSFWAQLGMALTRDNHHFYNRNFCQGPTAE
In words: HEK293-Blue-hTLR-9 cells assay (SEAP reporter, ODN2006 stimulation). The assay is classed as cell-based. To be noted: HEK293-Blue-hTLR9 cells, ODN2006 ligand, 20 hrs incubation. The protocol:
The following tests were carried out in order to determine the activity of the compounds of formula (I) in HEK293-Blue-hTLR-7/8/9 cells assay.
HEK293-Blue-hTLR-9 Cells Assay:
A stable HEK293-Blue-hTLR-9 cell line was purchased from InvivoGen (Cat. #: hkb-htlr9, San Diego, Calif., USA). These cells were originally designed for studying the stimulation of human TLR9 by monitoring the activation of NF-κB. A SEAP (secreted embryonic alkaline phosphatase) reporter gene was placed under the control of the IFN-β minimal promoter fused to five NF-κB and AP-1-binding sites. The SEAP was induced by activating NF-κB and AP-1 via stimulating HEK-Blue hTLR9 cells with TLR9 ligands. Therefore the reporter expression was declined by TLR9 antagonist under the stimulation of a ligand, such as ODN2006 (Cat. #: tlrl-2006-1, Invivogen, San Diego, Calif., USA), for incubation of 20 hrs. The cell culture supernatant SEAP reporter activity was determined using QUANTI-Blue™ kit (Cat. #: rep-qb1, Invivogen, San Diego, Calif., USA) at a wavelength of 640 nm, a detection medium that turns purple or blue in the presence of alkaline phosphatase.
HEK293-Blue-hTLR9 cells were incubated at a density of 250,000˜450,000 cells/mL in a volume of 170 μL in a 96-well plate in Dulbecco's Modified Eagle's medium (DMEM) containing 4.5 g/L glucose, 50 U/mL penicillin, […], […], 2 mM L-glutamine, 10% (v/v) heat-inactivated fetal bovine serum with addition of 20 μL test compound in a serial dilution in the presence of final DMSO at 1% and 10 μL of 20 uM ODN2006 in above DMEM, perform incubation under 37° C. in a CO2incubator for 20 hrs. Then 20 μL of the superatant from each well was incubated with 180 μL Quanti-blue substrate solution at 37° C. for 2 hrs and the absorbance was read at 620˜655 nm using a spectrophotometer. The signalling pathway that TLR9 activation leads to downstream NF-κB activation has been widely accepted, and therefore similar reporter assay was modified for evaluating TLR9 antagonist.
As a reminder, the IC50 is the midpoint of a concentration-inhibition curve. As for `CC[C@@H]1CN(c2ccc(C#N)c3ncccc23)C[C@H]1CN1CCC2(CCNCC2)CC1` (relative stereo) [Example 15, 5-[Trans-3-(3,9-diazaspiro[5.5]undecan-3-ylmethyl)-4-ethyl-pyrrolidin-1-yl]quinoline-8-carbonitrile], the IC50 was found to be 32 nM.
As to `FC(F)(F)c1ccc(N2C[C@@H](CN3CCC4(CCNC4)C3)[C@H](C(F)(F)F)C2)c2nccnc12` (relative stereo) [Example 19, 5-[Trans-3-(2,7-diazaspiro[4.4]nonan-2-ylmethyl)-4-(trifluoromethyl)pyrrolidin-1-yl]-8-(trifluoromethyl)quinoxaline], inhibition was half-maximal at 815 nM (IC50).
Turning to `C[C@@H]1CN(c2ccc(C(F)(F)F)c3nccnc23)C[C@H]1CN1CCC2(CCNCC2)CC1` (relative stereo) [Example 21, 3-[[Trans-4-methyl-1-[8-(trifluoromethyl)quinoxalin-5-yl]pyrrolidin-3-yl]methyl]-3,9-diazaspiro[5.5]undecane], the IC50 was determined as 294 nM.
In the case of `N#Cc1ccc(N2C[C@@H](CN3CCC4(CCNCC4)CC3)[C@H](C(F)F)C2)c2cccnc12` (relative stereo) [Example 27, 5-[Trans-3-(3,9-diazaspiro[5.5]undecan-3-ylmethyl)-4-(difluoromethyl)pyrrolidin-1-yl]quinoline-8-carbonitrile], half-maximal inhibition (IC50) required 32 nM.
`N#Cc1ccc(N2C[C@@H](CN3CCC4(CCNCC4)CC3)[C@H](C3CC3)C2)c2cccnc12` (relative stereo) [Example 28, 5-[Trans-3-cyclopropyl-4-(3,9-diazaspiro[5.5]undecan-3-ylmethyl)pyrrolidin-1-yl]quinoline-8-carbonitrile] yielded a half-inhibitory concentration (IC50) of 39 nM.
With `CC[C@@H]1CN(c2ccc(C#N)c3ncccc23)C[C@H]1CN1CCC2(CCNC2)C1` (relative stereo) [Example 29, 5-[Trans-3-(2,7-diazaspiro[4.4]nonan-2-ylmethyl)-4-ethyl-pyrrolidin-1-yl]quinoline-8-carbonitrile], half-maximal inhibition (IC50) required 56 nM.
To `C[C@@H]1CN(c2ccc(C(F)(F)F)c3nccnc23)C[C@H]1CN1CCC(N2CCCCC2)CC1` (relative stereo) [Example 33, 5-[Trans-3-methyl-4-[[4-(1-piperidyl)-1-piperidyl]methyl]pyrrolidin-1-yl]-8-(trifluoromethyl)quinoxaline] belongs 863 nM; to `N#Cc1ccc(N2C[C@@H](CN3CCC4(CCNC4)C3)[C@H](C(F)F)C2)c2cccnc12` (relative stereo) [Example 34, 5-[Trans-3-(2,7-diazaspiro[4.4]nonan-2-ylmethyl)-4-(difluoromethyl)pyrrolidin-1-yl]quinoline-8-carbonitrile], 85 nM; to `CC(C)[C@@H]1CN(c2ccc(C#N)c3ncccc23)C[C@H]1CN1CCC2(CCNCC2)CC1` (relative stereo) [Example 36, 5-[Trans-3-(3,9-diazaspiro[5.5]undecan-3-ylmethyl)-4-isopropyl-pyrrolidin-1-yl]quinoline-8-carbonitrile], 50 nM.
`CC(C)[C@@H]1CN(c2ccc(C#N)c3ncccc23)C[C@H]1CN1CCC2(CCNC2)C1` (relative stereo) [Example 44, 5-[Trans-3-(2,7-diazaspiro[4.4]nonan-2-ylmethyl)-4-isopropyl-pyrrolidin-1-yl]quinoline-8-carbonitrile] showed an IC50 of 91 nM.
`N#Cc1ccc(N2CC(CN3CCC(N)CC3)C3(CC3)C2)c2nccnc12` (single isomer, unassigned) [Example 68A, 8-[7-[(4-Amino-1-piperidyl)methyl]-5-azaspiro[2.4]heptan-5-yl]quinoxaline-5-carbonitrile]: the IC50 was 71 nM.
For the molecule `N#Cc1ccc(N2C[C@H](CN3CCC4(CCNCC4)CC3)[C@@H](C(F)(F)F)C2)c2nccnc12` [Example 1, 8-[(3S,4R)-3-(3,9-diazaspiro[5.5]undecan-3-ylmethyl)-4-(trifluoromethyl)pyrrolidin-1-yl]quinoxaline-5-carbonitrile], the IC50 stood at 106 nM.
Next, `N#Cc1ccc(N2C[C@H](CN3CCC4(CCNCC4)CC3)[C@@H](C(F)(F)F)C2)c2cccnc12` [Example 2, 5-[(3S,4R)-3-(3,9-diazaspiro[5.5]undecan-3-ylmethyl)-4-(trifluoromethyl)pyrrolidin-1-yl]quinoline-8-carbonitrile]: 76 nM.
The molecule `N#Cc1ccc(N2C[C@H](CN3CCC4(CCNC4)C3)[C@@H](C(F)(F)F)C2)c2nccnc12` (stereo partly drawn) [Example 5, 8-[(3S,4R)-3-(2,7-diazaspiro[4.4]nonan-2-ylmethyl)-4-(trifluoromethyl)pyrrolidin-1-yl]quinoxaline-5-carbonitrile] gave an IC50 of 137 nM.
To `N#Cc1ccc(N2C[C@H](CN3CCC4(CCCNC4)C3)[C@@H](C(F)(F)F)C2)c2cccnc12` (stereo partly drawn) [Example 6, 5-[(3S,7R)-3-(2,9-diazaspiro[4.5]decan-2-ylmethyl)-4-(trifluoromethyl)pyrrolidin-1-yl]quinoline-8-carbonitrile] belongs 136 nM.
Turning to `CC1(N)CCN(CC2CN(c3ccc(C#N)c4nccnc34)CC23CC3)CC1` (stereo not shown) [Example 7, 8-[7-[(4-Amino-4-methyl-1-piperidyl)methyl]-5-azaspiro[2.4]heptan-5-yl]quinoxaline-5-carbonitrile], the IC50 came to 77 nM.
`N#Cc1ccc(N2C[C@H](CN3CC4(CCCNC4)C3)[C@@H](C(F)(F)F)C2)c2cccnc12` [Example 8, 5-[(3S,7R)-3-(2,8-diazaspiro[3.5]nonan-2-ylmethyl)-4-(trifluoromethyl)pyrrolidin-1-yl]quinoline-8-carbonitrile] returned an IC50 of 113 nM.
For `N#Cc1ccc(N2C[C@H](CN3CCC4(CCNC4)C3)[C@@H](C(F)(F)F)C2)c2cccnc12` (stereo partly drawn) [Example 9, 5-[(3S,4R)-3-(2,7-diazaspiro[4.4]nonan-2-ylmethyl)-4-(trifluoromethyl)pyrrolidin-1-yl]quinoline-8-carbonitrile], the IC50 was found to be 104 nM.
The molecule `N#Cc1ccc(N2C[C@H](CN3CCC(N4CCCCC4)CC3)[C@@H](C(F)(F)F)C2)c2cccnc12` [Example 10, 5-[(3S,4R)-3-[[4-(1-piperidyl)-1-piperidyl]methyl]-4-(trifluoromethyl)pyrrolidin-1-yl]quinoline-8-carbonitrile] returned an IC50 of 834 nM.
Molecule `N#Cc1ccc(N2CC(CN3CCC(N4CCCCC4)CC3)C3(CC3)C2)c2nccnc12` (stereo not shown) [Example 11, 8-[7-[[4-(1-Piperidyl)-1-piperidyl]methyl]-5-azaspiro[2.4]heptan-5-yl]quinoxaline-5-carbonitrile] had an IC50 of 125 nM.
`CC1(N)CCN(C[C@H]2CN(c3ccc(C#N)c4nccnc34)C[C@@H]2C(F)(F)F)CC1` [Example 12, 8-[(3S,4R)-3-[(4-amino-4-methyl-1-piperidyl)methyl]-4-(trifluoromethyl)pyrrolidin-1-yl]quinoxaline-5-carbonitrile] came in with an IC50 of 219 nM.
`N#Cc1ccc(N2CC(CN3CCC4(CCCNC4)CC3)C3(CC3)C2)c2nccnc12` (stereo not shown) [Example 13, 8-[7-(2,9-Diazaspiro[5.5]undecan-9-ylmethyl)-5-azaspiro[2.4]heptan-5-yl]quinoxaline-5-carbonitrile] gave an IC50 of 60 nM.
